# Assay results from BindingDB's records for doi:10.1021/acs.biochem.6b00733 (Utrecht University, 2016).
# Target: T1, Nicotinamide N-methyltransferase (Homo sapiens, UniProt P40261)
# T1 sequence (P40261 whole entry): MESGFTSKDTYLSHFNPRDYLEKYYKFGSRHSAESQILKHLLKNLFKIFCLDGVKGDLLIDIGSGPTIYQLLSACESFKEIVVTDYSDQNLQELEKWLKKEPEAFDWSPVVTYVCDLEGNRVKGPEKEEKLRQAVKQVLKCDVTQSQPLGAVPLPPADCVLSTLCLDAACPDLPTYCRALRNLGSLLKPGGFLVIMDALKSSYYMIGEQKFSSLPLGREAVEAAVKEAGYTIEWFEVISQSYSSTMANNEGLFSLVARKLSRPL
# Test: NNMT Enzymatic Activity Assay
# Details: pH 8.6; 37 °C
# Protocol: Enzyme activity assays were performed as previously described with NNMT (16.25 ug/mL, 550 nM) in 50 mM Tris buffer (pH 8.6) containing 1 mM DTT (all final concentrations). The enzyme was incubated with the substrate pyridine compound for 5 min at 37 °C using a heat block before the reaction was initiated by addition of AdoMet (for substrates that were not soluble in water, stocksolutions were prepared in DMSO and diluted to a final DMSO concentration of <5% in the assay mixture). […] For these screens, the final reagent concentrations were 100 uM AdoMet and 2.0 mM substrate and a series of time points were initially investigated (5, 15, 30, and 60 min). At each time point, 15 uL aliquots of the reaction mixture were taken and added to 70 uL of acetonitrile, which served to quench the reaction by causing precipitation of the enzyme.
row,Ki [mM],Compound
1,9.7,NC(=O)c1cnc2ccccc2c1 [quinoline 3-carboxamide]
2,6.6,NC(=S)c1cccnc1 [thionicotinamide]

row,Compound,Ki [mM]
1,"c1ccc2c(c1)CCNC2 [1,2,3,4-tetrahydroisoquinoline]",4.7
